{
  "source": "patent US20250222051A1",
  "about": "“MU[…] ADJUVANT TREATMENT OF TUMOR, AND PREPARATION METHOD AND APPLICATION THEREOF” (Changde Jizhi Biological Technology Co., Ltd, priority 2024, published 2025)",
  "key": {"[1]": {"tested_on": "Human lung cancer cells (A549)", "details": "A549 transplanted tumor, oxaliplatin 15 mg/kg tail vein once, products 0.45 g/kg intragastric", "text": "(§1) Experimental animals: BLAB/c female nude mice, 6-7 weeks old, weighing 18-20 g.\n(§2) Subcutaneous tumor cell inoculation in mice: Human lung cancer cells (A549), human ovarian cancer cells (Skov-3) and human cervical cancer epithelial cells (Hela) in logarithmic growth phase are taken and made into cell suspension (1×10^7 cells/mL) with phosphate buffered saline (PBS), each mouse is inoculated with 2×10^6 cells, the inoculation volume is 200 microliters (μL), and then inoculated subcutaneously in the armpit of BLAB/c nude mice. The selected tumor tissues are put into a glass homogenizer, ground with sterile physiological saline, filtered into a single cell suspension through a sieve, and the number of living cells is counted by trypan blue staining. Each nude mouse is inoculated with 200 μL cell suspension (including 1×10^6 cells) under its armpit.\n(§3) Experimental grouping and methods: nude mice with the same tumor size are selected, and the nude mice are weighed and randomly divided into groups. […] The drug concentration and specific grouping are as follows. The model control group is intragastrically administered with 200 μL normal saline once a day, the mice are administered once on the second day after tumor inoculation. […] After 24 hours of the last administration, the tumor mass is taken out, the tumor weight is measured and the tumor inhibition rate is calculated."}, "[2]": {"tested_on": "mouse H22 hepatoma cells", "details": "oxaliplatin 15 mg/kg tail vein once, products 0.45 g/kg intragastric", "experimental": "The anti-tumor effect of the product of the disclosure on a Hepatoma-22 (H22) mouse model of live cancer is studied.\nPositive control drug: oxaliplatin.\nAnimals and preparation of tumors are as follows. BALB/c male mice are adopted, weighing 18-22 g. The mice are fed in specific-pathogen free (SPF) grade animal house, with temperature of 20-25° C., relative humidity of 40%-70%, 6 mice per cage, illumination time of 12 h, regular and quantitative addition of feed, free drinking water, and daily replacement of padding.\nTransplanted tumor cells: 10^6 mouse H22 hepatoma cells are injected into abdominal cavity for passage, and the hepatoma cells are collected after 7-10 days for subcutaneous inoculation.\nExperimental methods of tumor passage preservation for in vivo tumor inhibition effect evaluation: H22 hepatoma mice are inoculated intraperitoneally and the ascites is taken for passage and preservation.\nTumor inoculation: H22 hepatocellular carcinoma bearing mice on the 10th day of ascites passage are taken, the mice are killed by cervical vertebra removal, the abdominal skin is disinfected, milky white ascites is absorbed with a sterile syringe, and the concentration of tumor cells is adjusted to 1×10^6 cells per milliliter (mL) with normal saline for injection. The right armpit skin of BALB/c mice is disinfected with alcohol cotton balls, 0.2 mL of the tumor cell suspension is inoculated subcutaneously, and the mice are raised routinely.\nAfter 24 hours of the last administration, the mice are sacrificed by cervical dislocation, and the tumor tissues are stripped and weighed. The curative effect is evaluated by tumor weight inhibition rate (%), and analysis of variance (ANOVA) test is used for statistical comparison between groups."}, "[3]": {"tested_on": "human cervical cancer epithelial cells (Hela)", "details": "Hela transplanted tumor, oxaliplatin 15 mg/kg tail vein once, products 0.45 g/kg intragastric", "text": "as §1, §2, §3"}, "[4]": {"tested_on": "human ovarian cancer cells (Skov-3)", "details": "Skov-3 transplanted tumor, oxaliplatin 15 mg/kg tail vein once, products 0.45 g/kg intragastric", "text": "as §1, §2, §3"}},
  "data": [
    {"smiles": "O=C1[O][Pt]2([NH][C@@H]3CCCC[C@H]3[NH]2)[O]C1=O", "note": "[Oxaliplatin, oxaliplatin]", "values": [
      {"measurement": "Tumor weight", "setting": "[1]; X ± SD", "result": "0.98 ± 0.32", "unit": "g"},
      {"measurement": "Inhibition rate (%)", "setting": "[1]", "result": 58.25, "unit": "%"},
      {"measurement": "Tumor weight", "setting": "[2]; H22 subcutaneous tumor, 24 hours after last administration", "result": "1.14 ± 0.29", "unit": "g"},
      {"measurement": "Inhibition rate (%)", "setting": "[2]; H22 tumor weight inhibition rate", "result": 50.22, "unit": "%"},
      {"measurement": "Weight Start", "setting": "[2]; body weight of H22 tumor-bearing mice at start", "result": "20.09 ± 1.08"},
      {"measurement": "Tumor weight", "setting": "[3]; X ± SD", "result": "1.78 ± 0.33", "unit": "g"},
      {"measurement": "Inhibition rate (%)", "setting": "[3]", "result": 45.25, "unit": "%"},
      {"measurement": "Tumor weight", "setting": "[4]; X ± SD", "result": "1.78 ± 0.33", "unit": "g"},
      {"measurement": "Inhibition rate (%)", "setting": "[4]", "result": 45.25, "unit": "%"}
    ]}
  ]
}
